Experiment: physchem

chromatographic logP | SMILES
4.51 | Cc1nnc(Cl)c(-c2c(F)cccc2Cl)c1Sc1cccc(C(F)(F)F)c1 [3-41]
3.57 | Cc1nnc(Cl)c(-c2c(F)cccc2F)c1SC(C)C [3-25]
2.93 | Cc1nnc(Cl)c(-c2c(F)cccc2F)c1Cl [VIII-2, 3,5-Dichlor-4-(2,6-difluorphenyl)-6-methylpyridazin]
4.72 | Cc1nnc(Cl)c(-c2c(F)cccc2Cl)c1Sc1cccc(OC(F)(F)F)c1 [3-46]
4.03 | COc1cccc(Sc2c(C)nnc(Cl)c2-c2c(F)cccc2Cl)c1 [3-43]
1.41 | Cc1nnc(Cl)c(-c2c(F)cccc2F)c1O [5-1, 3-Chlor-4-(2,6-difluorphenyl)-5-hydroxy-6-methylpyridazin]
4.35 | Cc1nnc(Cl)c(-c2c(F)cccc2F)c1Sc1ccc(Cl)cc1 [3-20, 3-Chlor-4-(2,6-difluorphenyl)-5-(4-chlorphenylsulfanyl)-6-methylpyridazin]
3.99 | Cc1nnc(Cl)c(-c2c(F)cccc2Cl)c1Sc1ccccc1F [3-40]
2.58 | Cc1nn(Cc2ccccc2)c(=O)c(-c2c(F)cccc2Cl)c1O [VI-1, 2-Benzyl-4-(2-chlor-6-fluorphenyl)-5-hydroxy-6-methylpyridazin-3(2H)-on]

Further lines, the compound ahead of its results:

SMILES | chromatographic logP
COc1ccc(COc2c(C)nnc(Cl)c2-c2c(F)cccc2F)cc1 [2-42, 3-Chlor-4-(2,6-difluorphenyl)-5-(4-Methoxybenzyloxy)-6-methylpyridazin] | 3.35
Cc1nnc(Cl)c(-c2c(F)cccc2Cl)c1OC1CCOCC1 [2-85] | 2.68
Cc1nnc(Cl)c(-c2c(F)cccc2F)c1N1CCOCC1 [1-59] | 2.19
COCCOCCOc1c(C)nnc(Cl)c1-c1c(F)cccc1Cl [2-83] | 2.58
Cc1nnc(Cl)c(-c2c(F)cccc2F)c1N(C)CC(C)C [1-66] | 3.65
Cc1nnc(Cl)c(-c2c(F)cccc2Cl)c1Oc1cc(Cl)ccc1Cl [2-80] | 4.27
Cc1nnc(Cl)c(-c2c(F)cccc2Cl)c1Oc1ccc(Cl)cc1 [2-60] | 4.13
Cc1nnc(Cl)c(-c2c(F)cccc2Cl)c1Oc1cccc(C(C)(C)C)c1 [2-71] | 4.92
Cc1nnc(Cl)c(-c2c(F)cccc2F)c1OCC(C)C [2-32] | 3.57
Cc1nnc(Cl)c(-c2c(F)cccc2F)c1NC(C)C [1-51] | 2.36
Cc1nnc(Cl)c(-c2c(F)cccc2Cl)c1Oc1ccc(F)cc1 [2-67] | 3.56
Cc1nnc(Cl)c(-c2c(F)cccc2F)c1NCc1ccccc1 [1-63] | 2.67
Cc1nnc(Cl)c(-c2c(F)cccc2F)c1N[C@H](C)C(C)C [1-46] | 3.04
Cc1nnc(Cl)c(-c2c(F)cccc2F)c1NCC(C)(C)C [1-49] | 3.06
COc1cccc(Oc2c(C)nnc(Cl)c2-c2c(F)cccc2Cl)c1 [2-73] | 3.56
Cc1nnc(Cl)c(-c2c(F)cccc2Cl)c1Oc1cccc(C(F)(F)F)c1 [2-68] | 4.13
COCCOc1c(C)nnc(Cl)c1-c1c(F)cccc1Cl [2-84] | 2.6
Cc1nnc(Cl)c(-c2c(F)cccc2Cl)c1Oc1cccc(N(C)C)c1 [2-78] | 3.85
Cc1nnc(Cl)c(-c2c(F)cccc2Cl)c1Oc1cc(Cl)cc(Cl)c1 [2-81] | 4.61
Cc1nnc(Cl)c(-c2c(F)cccc2Cl)c1Nc1ccc(Cl)cc1 [1-99] | 3.18
Cc1nnc(Cl)c(-c2c(F)cccc2Cl)c1N1CCOCC1 [1-94] | 2.39
Cc1nnc(Cl)c(-c2c(F)cccc2Cl)c1N1CCCC1C (stereo not shown) [1-97] | 3.32
Cc1nnc(Cl)c(-c2c(F)cccc2Cl)c1NC1CC1 [1-86] | 2.35
Cc1nnc(Cl)c(-c2c(F)cccc2Cl)c1N1CCC2(C)CC2C1 (stereo not shown) [1-96] | 4.25
Cc1nnc(Br)c(-c2c(F)cccc2Cl)c1Oc1ccc(Cl)cc1 [2-62] | 4.12

— patent EP2042491A1, “Pyridazines as fungicides” (Bayer CropScience AG, priority 2007, dated 2009)
